Results from the supplement of paper PMC10733146.

Key:
Assay in all cases: viability relative to DMSO control (fraction); higher = less drug effect (more viable cells)
Settings in all cases: 48 h
Imatinib = compound: Cc1ccc(NC(=O)c2ccc(CN3CCN(C)CC3)cc2)cc1Nc1nccc(-c2cccnc2)n1 [Imatinib]
Summary of the method: (§1)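 Using 384-well plates with compounds already plated at five concentrations, one well per concentration, 4 × 10^4 primary mononuclear tumour cells were added per well. Cells were Ficoll-isolated from blood or bone marrow or came from processed lymph node, fresh or cryopreserved. They were kept for 48 h at 37 °C and 5% CO2 in RPMI-1640 supplemented with penicillin/streptomycin, L-glutamine and human serum, and viability was read as CellTiter-Glo luminescence relative to the median of 16 inner DMSO wells.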

Rigosertib = compound: COc1cc(OC)c(/C=C/S(=O)(=O)Cc2ccc(OC)c(NCC(=O)O)c2)c(OC)c1 [Rigosertib]
Summary of the method: as §1

Cladribine = compound: Nc1nc(Cl)nc2c1ncn2[C@H]1C[C@H](O)[C@@H](CO)O1 [Cladribine]
Summary of the method: as §1

Idarubicin = compound: CC(=O)[C@]1(O)Cc2c(O)c3c(c(O)c2[C@@H](O[C@H]2C[C@H](N)[C@H](O)[C@H](C)O2)C1)C(=O)c1ccccc1C3=O [Idarubicin]
Summary of the method: as §1

Obatoclax mesylate = compound: COC1=CC(c2cc3ccccc3[nH]2)=N/C1=C\c1[nH]c(C)cc1C [Obatoclax mesylate]
Summary of the method: as §1

Birinapant = compound: CC[C@H](NC(=O)[C@H](C)NC)C(=O)N1C[C@@H](O)C[C@H]1Cc1c(-c2[nH]c3cc(F)ccc3c2C[C@@H]2C[C@H](O)CN2C(=O)[C@H](CC)NC(=O)[C@H](C)NC)[nH]c2cc(F)ccc12 [Birinapant]
Summary of the method: as §1

Tozasertib = compound: Cc1cc(Nc2cc(N3CCN(C)CC3)nc(Sc3ccc(NC(=O)C4CC4)cc3)n2)n[nH]1 [Tozasertib]
Summary of the method: as §1

[1] = compound: CC(C)(C)OC(=O)Nc1ccc(-c2cc(C(=O)NCCCCCCC(=O)NO)no2)cc1
Summary of the method: as §1

Carfilzomib = compound: CC(C)C[C@H](NC(=O)[C@H](CCc1ccccc1)NC(=O)CN1CCOCC1)C(=O)N[C@@H](Cc1ccccc1)C(=O)N[C@@H](CC(C)C)C(=O)[C@@]1(C)CO1 [Carfilzomib]
Summary of the method: as §1

Vincristine = compound: CC[C@]1(O)C[C@H]2CN(CCc3c([nH]c4ccccc34)[C@@](C(=O)OC)(c3cc4c(cc3OC)N(C=O)[C@H]3[C@@](O)(C(=O)OC)[C@H](OC(C)=O)[C@]5(CC)C=CCN6CC[C@]43[C@@H]65)C2)C1 [Vincristine]
Summary of the method: as §1

ONO-4059 = compound: CC#CC(=O)N1CC[C@@H](n2c(=O)n(-c3ccc(Oc4ccccc4)cc3)c3c(N)ncnc32)C1 [ONO-4059]
Summary of the method: as §1

ERK5-IN-1 = compound: CCOc1cc(C(=O)N2CCC(N3CCN(C)CC3)CC2)ccc1Nc1ncc2c(n1)N(C1CCCC1)c1ccccc1C(=O)N2C [ERK5-IN-1]
Summary of the method: as §1

Quizartinib = compound: CC(C)(C)c1cc(NC(=O)Nc2ccc(-c3cn4c(n3)sc3cc(OCCN5CCOCC5)ccc34)cc2)no1 [Quizartinib]
Summary of the method: as §1

TMP269 = compound: O=C(NCC1(c2nc(-c3ccccc3)cs2)CCOCC1)c1cccc(-c2noc(C(F)(F)F)n2)c1 [TMP269]
Summary of the method: as §1

Test System: primary AML patient cells (S002)
- viability (Imatinib; 0.08 µM): 1
- viability (Imatinib; 0.4 µM): 1.1
- viability (Imatinib; 2 µM): 1.17
- viability (Imatinib; 10 µM): 1.26
- viability (Rigosertib; 0.008 µM): 0.949
- viability (Rigosertib; 0.04 µM): 0.952
- viability (Rigosertib; 0.2 µM): 0.943
- viability (Rigosertib; 1 µM): 0.803
- viability (Rigosertib; 5 µM): 1.02
- viability (Cladribine; 0.024 µM): 0.456
- viability (Cladribine; 0.12 µM): 0.412
- viability (Cladribine; 0.6 µM): 0.358
- viability (Cladribine; 3 µM): 0.365
- viability (Cladribine; 15 µM): 0.349
- viability (Idarubicin; 0.024 µM): 0.332
- viability (Idarubicin; 0.12 µM): 0.303
- viability (Idarubicin; 0.6 µM): 0.267
- viability (Idarubicin; 3 µM): 0.217
- viability (Idarubicin; 15 µM): 0.165
- viability (Obatoclax mesylate; 0.024 µM): 0.904
- viability (Obatoclax mesylate; 0.12 µM): 0.841
- viability (Obatoclax mesylate; 0.6 µM): 0.497
- viability (Obatoclax mesylate; 3 µM): 0.322
- viability (Obatoclax mesylate; 15 µM): 0.142
- viability (Birinapant; 0.0008 µM): 0.8
- viability (Birinapant; 0.004 µM): 0.783
- viability (Birinapant; 0.02 µM): 0.66
- viability (Birinapant; 0.1 µM): 0.478
- viability (Birinapant; 0.5 µM): 0.322
- viability (Tozasertib; 0.024 µM): 1.09
- viability (Tozasertib; 0.12 µM): 0.779
- viability (Tozasertib; 0.6 µM): 0.738
- viability (Tozasertib; 3 µM): 0.647
- viability (Tozasertib; 15 µM): 0.474
- viability ([1]; 0.024 µM): 1.04
- viability ([1]; 0.12 µM): 0.659
- viability ([1]; 0.6 µM): 0.419
- viability ([1]; 3 µM): 0.307
- viability ([1]; 15 µM): 0.272
- viability (Carfilzomib; 0.00016 µM): 0.941
- viability (Carfilzomib; 0.0008 µM): 0.633
- viability (Carfilzomib; 0.004 µM): 0.195
- viability (Carfilzomib; 0.02 µM): 0.0988
- viability (Carfilzomib; 0.1 µM): 0.0663
- viability (Vincristine; 0.016 µM): 1.11
- viability (Vincristine; 0.08 µM): 1.18
- viability (Vincristine; 0.4 µM): 1.14
- viability (Vincristine; 2 µM): 0.99
- viability (Vincristine; 10 µM): 0.961
- viability (ONO-4059; 0.0016 µM): 1.07
- viability (ONO-4059; 0.008 µM): 1.08
- viability (ONO-4059; 0.04 µM): 0.919
- viability (ONO-4059; 0.2 µM): 0.971
- viability (ONO-4059; 1 µM): 0.997
- viability (ERK5-IN-1; 0.024 µM): 1.19
- viability (ERK5-IN-1; 0.12 µM): 1.07
- viability (ERK5-IN-1; 0.6 µM): 0.733
- viability (ERK5-IN-1; 3 µM): 0.421
- viability (ERK5-IN-1; 15 µM): 0.276
- viability (Quizartinib; 0.016 µM): 1.11
- viability (Quizartinib; 0.08 µM): 1.07
- viability (Quizartinib; 0.4 µM): 1.06
- viability (Quizartinib; 2 µM): 1.18
- viability (Quizartinib; 10 µM): 1.07
- viability (TMP269; 0.024 µM): 0.995
- viability (TMP269; 0.12 µM): 1.03
- viability (TMP269; 0.6 µM): 1.02
- viability (TMP269; 3 µM): 0.83
- viability (TMP269; 15 µM): 0.747

Test System: primary MCL patient cells (S041)
- viability (Imatinib; 0.016 µM): 1.07
- viability (Imatinib; 0.4 µM): 1.05
- viability (Imatinib; 2 µM): 1
- viability (Imatinib; 10 µM): 0.834
- viability (Rigosertib; 0.008 µM): 0.999
- viability (Rigosertib; 0.04 µM): 1.01
- viability (Rigosertib; 0.2 µM): 0.993
- viability (Rigosertib; 1 µM): 1
- viability (Rigosertib; 5 µM): 0.668
- viability (Cladribine; 0.024 µM): 0.833
- viability (Cladribine; 0.12 µM): 0.228
- viability (Cladribine; 0.6 µM): 0.0823
- viability (Cladribine; 3 µM): 0.0588
- viability (Cladribine; 15 µM): 0.047
- viability (Idarubicin; 0.024 µM): 0.985
- viability (Idarubicin; 0.12 µM): 0.462
- viability (Idarubicin; 0.6 µM): 0.0191
- viability (Idarubicin; 3 µM): 0.0267
- viability (Idarubicin; 15 µM): 0.0135
- viability (Obatoclax mesylate; 0.024 µM): 1.02
- viability (Obatoclax mesylate; 0.12 µM): 0.924
- viability (Obatoclax mesylate; 0.6 µM): 0.647
- viability (Obatoclax mesylate; 3 µM): 0.428
- viability (Obatoclax mesylate; 15 µM): 0.178
- viability (Birinapant; 0.0008 µM): 0.85
- viability (Birinapant; 0.004 µM): 0.884
- viability (Birinapant; 0.02 µM): 0.934
- viability (Birinapant; 0.1 µM): 0.87
- viability (Birinapant; 0.5 µM): 0.967
- viability (Tozasertib; 0.024 µM): 0.991
- viability (Tozasertib; 0.12 µM): 0.91
- viability (Tozasertib; 0.6 µM): 0.912
- viability (Tozasertib; 3 µM): 0.748
- viability (Tozasertib; 15 µM): 0.652
- viability ([1]; 0.024 µM): 1.02
- viability ([1]; 0.12 µM): 0.884
- viability ([1]; 0.6 µM): 0.65
- viability ([1]; 3 µM): 0.221
- viability ([1]; 15 µM): 0.0737
- viability (Carfilzomib; 0.00016 µM): 1.01
- viability (Carfilzomib; 0.0008 µM): 0.345
- viability (Carfilzomib; 0.004 µM): 0.0174
- viability (Carfilzomib; 0.02 µM): 0.0136
- viability (Carfilzomib; 0.1 µM): 0.0192
- viability (Vincristine; 0.016 µM): 0.667
- viability (Vincristine; 0.08 µM): 0.59
- viability (Vincristine; 0.4 µM): 0.519
- viability (Vincristine; 2 µM): 0.475
- viability (Vincristine; 10 µM): 0.355
- viability (ONO-4059; 0.0016 µM): 0.927
- viability (ONO-4059; 0.008 µM): 0.877
- viability (ONO-4059; 0.04 µM): 0.819
- viability (ONO-4059; 0.2 µM): 0.92
- viability (ONO-4059; 1 µM): 0.875
- viability (ERK5-IN-1; 0.024 µM): 1.04
- viability (ERK5-IN-1; 0.12 µM): 0.955
- viability (ERK5-IN-1; 0.6 µM): 0.907
- viability (ERK5-IN-1; 3 µM): 0.771
- viability (ERK5-IN-1; 15 µM): 0.564
- viability (Quizartinib; 0.016 µM): 1.07
- viability (Quizartinib; 0.08 µM): 1.11
- viability (Quizartinib; 0.4 µM): 1.09
- viability (Quizartinib; 2 µM): 1.06
- viability (Quizartinib; 10 µM): 0.964
- viability (TMP269; 0.024 µM): 1.02
- viability (TMP269; 0.12 µM): 1.08
- viability (TMP269; 0.6 µM): 1.06
- viability (TMP269; 3 µM): 1.01
- viability (TMP269; 15 µM): 0.942
